# Laboratory results published in patent US20230157996A1, “SMALL-MOLECULE INHIBITOR TARGETING EB VIRUS NUCLEAR ANTIGEN PROTEIN, PREPARATION METHOD AND USE THEREOF” (priority 2020, published 2023).
# System: C666-1 cells
# Test: C666-1 cell viability single concentration (50 μM) inhibition rate (Resazurin)
# Type: cell-based
# Details: 50 μM compound, 72 hours, C666-1 cells
# Summary of the method: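 Resazurin fluorescence (560/590 nm, 3 h development) gave the proliferation inhibition rate, normalised to DMSO-treated and cell-free blank wells. Compound was tested at a single 50 μmol/L final concentration on C666-1 cells for 72 h at 37° C, with duplicate wells, after 24 h seeding.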
row,Compound,"C666-1 cell viability single concentration (50 μM) inhibition rate, Ratio* (Inh %)"
1,"O=C(O)c1cccc(N2CC(Oc3ccc([N+](=O)[O-])cc3)C2)c1-n1cccc1 [Example 301, 3-(3-(4-nitrophenoxy)azetidin-1-yl)-2-(1H-pyrrol-1-yl)benzoic acid]",++++ (>50% ++++)

# Same assay, conditions: Homo sapiens, C6661, 72 h, 50 μM compound, 72 hours, C666-1 cells; read-out: C666-1 cell viability single concentration (50 μM) inhibition rate, Ratio* (Inh %)
row,Compound,inhibition at 50 µM
1,"COC(=O)c1cccc(N2CC(Oc3ccc(CO)cc3C)C2)c1-n1cccc1 [Example 299, Methyl 3-(3-(4-(hydroxymethyl)-2-methylphenoxy)azetidin-1-yl)-2-(1H-pyrrol-1-yl)benzoate]",> 50%
2,"Cc1cc(CO)ccc1OC1CN(c2cccc(C(=O)O)c2-n2cccc2)C1 [Example 300, 3-(3-(4-(hydroxymethyl)-2-methylphenoxy)azetidin-1-yl)-2-(1H-pyrrol-1-yl)benzoic acid]",< 10%
3,"CCNC(=O)c1ccc(OC2CN(c3cccc(C(=O)OC)c3-n3cccc3)C2)cc1 [Example 303, Methyl 3-(3-(4-(ethylcarbamoyl)phenoxy)azetidin-1-yl)-2-(1H-pyrrol-1-yl)benzoate]",10 to 30%
4,"COC(=O)c1cccc(N2CC(Oc3ccc4c(ccn4S(=O)(=O)c4ccc(C)cc4)c3)C2)c1-n1cccc1 [Example 304, Methyl 3-(3-((1-p-tolylsulfonyl-1H-indol-5-yl)oxy)azetidin-1-yl)-2-(1H-pyrrol-1-yl)benzoate]",< 10%
5,"Cc1ccc(S(=O)(=O)n2ccc3cc(OC4CN(c5cccc(C(=O)O)c5-n5cccc5)C4)ccc32)cc1 [Example 305, 3-(3-((1-p-tolylsulfonyl-1H-indol-5-yl)oxy)azetidin-1-yl)-2-(1H-pyrrol-1-yl)benzoic acid]",< 10%
6,"COCCOc1ccc(OC2CN(c3cccc(C(=O)OC)c3-n3cccc3)C2)cc1OCCOC [Example 306, Methyl 3-(3-(3,4-bis(2-methoxyethoxy)phenoxy)azetidin-1-yl)-2-(1H-pyrrol-1-yl)benzoate]",< 10%
7,"COCCOc1ccc(OC2CN(c3cccc(C(=O)O)c3-n3cccc3)C2)cc1OCCOC [Example 307, 3-(3-(3,4-bis(2-methoxyethoxy)phenoxy)azetidin-1-yl)-2-(1H-pyrrol-1-yl)benzoic acid]",< 10%
8,"COC(=O)c1cccc(N2CC(Oc3ccc(OC4CCCCO4)cc3)C2)c1-n1cccc1 (centres unmarked) [Example 308, Methyl 3-(3-(4-((tetrahydro-2H-pyran-2-yl)oxy)phenoxy)azetidin-1-yl)-2-(1H-pyrrol-1-yl)benzoate]",< 10%
9,"CNCCOc1ccc(OC2CN(c3cccc(C(=O)OC)c3-n3cccc3)C2)cc1 [Example 309, Methyl 3-(3-(4-(2-(methylamino)ethoxy)phenoxy)azetidin-1-yl)-2-(1H-pyrrol-1-yl)benzoate]",10 to 30%
10,"COC(=O)c1cccc(N2CC(Oc3ccc(OCCN)cc3)C2)c1-n1cccc1 [Example 310, Methyl 3-(3-(4-(2-aminoethoxy)phenoxy)azetidin-1-yl)-2-(1H-pyrrol-1-yl)benzoate]",< 10%
11,"COC(=O)c1cccc(N2CC(Oc3ccc(OCCN)c(OC)c3)C2)c1-n1cccc1 [Example 311, Methyl 3-(3-(4-(2-aminoethoxy)-3-methoxyphenoxy)azetidin-1-yl)-2-(1H-pyrrol-1-yl)benzoate]",10 to 30%
12,"COC(=O)c1cccc(N2CC(Oc3ccc(OCCNC(C)=O)cc3)C2)c1-n1cccc1 [Example 312, Methyl 3-(3-(4-(2-acetylaminoethoxy)phenoxy)azetidin-1-yl)-2-(1H-pyrrol-1-yl)benzoate]",30 to 50%
13,"CC(=O)NCCOc1ccc(OC2CN(c3cccc(C(=O)O)c3-n3cccc3)C2)cc1 [Example 313, 3-(3-(4-(2-acetylaminoethoxy)phenoxy)azetidin-1-yl)-2-(1H-pyrrol-1-yl)benzoic acid]",< 10%
14,"COC(=O)c1cccc(C#CN(Cc2ccco2)S(=O)(=O)c2ccc(C)cc2)c1-n1cccc1 [Example 314, Methyl 3-(((N-(furan-2-yl-methyl)-4-methylphenyl)sulfonamido)ethynyl)-2-(1H-pyrrol-1-yl)benzoate]",< 10%
15,"COC(=O)c1cccc(C#CN(Cc2ccc3c(ccn3C)c2)S(=O)(=O)c2ccc(C)cc2)c1-n1cccc1 [Example 316, Methyl 3-(((4-methyl-N-((1-methyl-1H-indol-5-yl)methyl)phenyl)sulfonamido)ethynyl)-2-(1H-pyrrol-1-yl)benzoate]",< 10%
16,"COC(=O)c1cccc(C#CN(CC2CCN(C)CC2)S(=O)(=O)c2ccc(C)cc2)c1-n1cccc1 [Example 318, Methyl 3-(((4-methyl-N-((1-methylpiperidin-4-yl)methyl)phenyl)sulfonamido)ethynyl)-2-(1H-pyrrol-1-yl)benzoate]",> 50%
17,"COC(=O)c1cccc(C#CN(Cc2ccccc2)S(=O)(=O)c2csc3ccccc23)c1-n1cccc1 [Example 320, Methyl 3-((N-benzylbenzo[b]thiophen-3-sulfonamido)ethynyl)-2-(1H-pyrrol-1-yl)benzoate]",< 10%
18,"COC(=O)c1cccc(C#CN(Cc2ccccc2)S(=O)(=O)c2cccs2)c1-n1cccc1 [Example 322, Methyl 3-((N-benzylthiophen-2-sulfonamido)ethynyl)-2-(1H-pyrrol-1-yl)benzoate]",10 to 30%
19,"COC(=O)c1cccc(C#CN(Cc2ccccc2F)S(=O)(=O)c2cccs2)c1-n1cccc1 [Example 324, Methyl 3-((N-(2-fluorobenzyl)thiophen-2-sulfonamido)ethynyl)-2-(1H-pyrrol-1-yl)benzoate]",10 to 30%
20,"COC(=O)c1cccc(C#CN(Cc2ccc(F)cc2)S(=O)(=O)c2cccs2)c1-n1cccc1 [Example 326, Methyl 3-((N-(4-fluorobenzyl)thiophen-2-sulfonamido)ethynyl)-2-(1H-pyrrol-1-yl)benzoate]",30 to 50%
21,"COC(=O)c1cccc(C#CN(Cc2cccs2)S(=O)(=O)c2ccc(C)cc2)c1-n1cccc1 [Example 328, Methyl 3-(((4-methyl-N-(thiophen-2-yl-methyl)phenyl)sulfonamido)ethynyl)-2-(1H-pyrrol-1-yl)benzoate]",10 to 30%
22,"COC(=O)c1cccc(C#CN(Cc2ccccc2)S(=O)(=O)c2ccc3occc3c2)c1-n1cccc1 [Example 330, Methyl 3-((N-benzylbenzofuran-5-sulfonamido)ethynyl)-2-(1H-pyrrol-1-yl)benzoate]",> 50%
23,"COC(=O)c1cccc(C#CN(Cc2ccc(CO)cc2)S(=O)(=O)c2ccc(C)cc2)c1-n1cccc1 [Example 332, Methyl 3-(((N-(4-(hydroxymethyl)benzyl)-4-methylphenyl)sulfonamido)ethynyl)-2-(1H-pyrrol-1-yl)benzoate]",> 50%
24,"COC(=O)c1cccc(C#CN(Cc2ccc3c(ccn3C)c2)S(=O)(=O)c2csc3ccccc23)c1-n1cccc1 [Example 334, Methyl 3-((N-((1-methyl-1H-indol-5-yl)methyl)benzo[b]thiophen-3-sulfonamido)ethynyl)-2-(1H-pyrrol-1-yl)benzoate]",> 50%

# Same assay, conditions: Homo sapiens, C6661, 72 h, read-out: C666-1 cell viability single concentration (50 μM) inhibition rate, Ratio* (Inh %)
row,Compound,inhibition at 50 µM
1,"Cc1ccc(S(=O)(=O)N(C#Cc2cccc(C(=O)O)c2-n2cccc2)Cc2ccco2)cc1 [Example 315, Lithium 3-(((N-(furan-2-yl-methyl)-4-methylphenyl)sulfonamido)ethynyl)-2-(1H-pyrrol-1-yl)benzoate]",> 50%
2,"Cc1ccc(S(=O)(=O)N(C#Cc2cccc(C(=O)O)c2-n2cccc2)Cc2ccc3c(ccn3C)c2)cc1 [Example 317, Lithium 3-(((4-methyl-N-((1-methyl-1H-indol-5-yl)methyl)phenyl)sulfonamido)ethynyl)-2-(1H-pyrrol-1-yl)benzoate]",10 to 30%
3,"Cc1ccc(S(=O)(=O)N(C#Cc2cccc(C(=O)O)c2-n2cccc2)CC2CCN(C)CC2)cc1 [Example 319, Lithium 3-(((4-methyl-N-((1-methylpiperidin-4-yl)methyl)phenyl)sulfonamido)ethynyl)-2-(1H-pyrrol-1-yl)benzoate]",> 50%
4,"O=C(O)c1cccc(C#CN(Cc2ccccc2)S(=O)(=O)c2csc3ccccc23)c1-n1cccc1 [Example 321, Lithium 3-((N-benzylbenzo[b]thiophen-3-sulfonamido)ethynyl)-2-(1H-pyrrol-1-yl)benzoate]",< 10%
5,"O=C(O)c1cccc(C#CN(Cc2ccccc2)S(=O)(=O)c2cccs2)c1-n1cccc1 [Example 323, Lithium 3-((N-benzylthiophen-2-sulfonamido)ethynyl)-2-(1H-pyrrol-1-yl)benzoate]",< 10%
6,"O=C(O)c1cccc(C#CN(Cc2ccccc2F)S(=O)(=O)c2cccs2)c1-n1cccc1 [Example 325, Lithium 3-((N-(2-fluorobenzyl)thiophen-2-sulfonamido)ethynyl)-2-(1H-pyrrol-1-yl)benzoate]",30 to 50%
7,"O=C(O)c1cccc(C#CN(Cc2ccc(F)cc2)S(=O)(=O)c2cccs2)c1-n1cccc1 [Example 327, Lithium 3-((N-(4-fluorobenzyl)thiophen-2-sulfonamido)ethynyl)-2-(1H-pyrrol-1-yl)benzoate]",> 50%
8,"Cc1ccc(S(=O)(=O)N(C#Cc2cccc(C(=O)O)c2-n2cccc2)Cc2cccs2)cc1 [Example 329, Lithium 3-(((4-methyl-N-(thiophen-2-yl-methyl)phenyl)sulfonamido)ethynyl)-2-(1H-pyrrol-1-yl)benzoate]",> 50%
9,"O=C(O)c1cccc(C#CN(Cc2ccccc2)S(=O)(=O)c2ccc3occc3c2)c1-n1cccc1 [Example 331, Lithium 3-((N-benzylbenzofuran-5-sulfonamido)ethynyl)-2-(1H-pyrrol-1-yl)benzoate]",< 10%
10,"Cc1ccc(S(=O)(=O)N(C#Cc2cccc(C(=O)O)c2-n2cccc2)Cc2ccc(CO)cc2)cc1 [Example 333, Lithium 3-(((N-(4-(hydroxymethyl)benzyl)-4-methylphenyl)sulfonamido)ethynyl)-2-(1H-pyrrol-1-yl)benzoate]",> 50%
